This is an account of results in PMC9595134, “Novel pituitary actions of GnRH in teleost: The link between reproduction and feeding regulation” (Frontiers in Endocrinology, 2022).

Assay [1] has as its system grass carp pituitary cells. Briefly: Signal transduction: pathway inhibitors on GnRH-regulated reproductive gene mRNA. The assay is classed as cell-based, grass carp (Ctenopharyngodon idellus). To be noted: U73122 10 μM, GF109203X 20 μM, 2-APB 100 μM, MDL12330A 20 μM, H89 20 μM, nifedipine 10 μM, calmidazolium 1 μM, KN62 5 μM; for blockade of GnRH2-induced GtHα, LHβ, FSHβ, INHBa, and SgII mRNA expression: cotreated with GnRH2, 24 h; for blockade of GnRH3-induced GtHα, LHβ, FSHβ, INHBa, and SgII mRNA expression: cotreated with GnRH3, 24 h. The procedure: (§1) The preparation of grass carp pituitary cells was performed as mentioned above. After drug treatment, the total RNA of these cells was isolated by TRIzol reagent and reverse transcribed into cDNA with Hifair™ III 1st Strand cDNA Synthesis Kit. The transcript levels of several anorectic peptides (POMCb, CART2, UTS1, NMBa, NMBb, and Lepr) and reproductive genes (GtHα, LHβ, FSHβ, INHBa, SgII, DRD2) were detected by using an ABI 7500 quantitative real-time PCR (qRT-PCR) system (Biosystems, USA) (information of primers for target genes is listed in Supplementary Table S3 ). In this process, a serial gradient dilution of plasmid DNA of these genes was used as a standard for data calibration. The conditions of qRT-PCR were set to 10 min, 95°C, for pre-degeneration; 15 s, 95°C, for degeneration; 30 s, 55°C–60°C, for annealing; 30 s, 72°C, for extending; and 20 s, 82°C, for signal detection with 40 cycles. Finally, the melt curve obtained through each test was used to verify and check the reliability and specificity of the corresponding qRT-PCR.
(§2) In this experiment, GnRH2 (A) or GnRH3 (B) combined with/without the PLC inhibitor U73122 (10 μM), PKC inhibitor GF109203X (20 μM), or IP3 receptor blocker 2-APB (100 μM) was used to incubate the grass carp pituitary cells for 24 (h) After drug treatment, the total RNA was extracted from the cells for real-time PCR of the respective genes. Data presented are expressed as mean ± SEM, and the different letters represent a significant difference at p < 0.05 between groups (ANOVA followed by a Dunnett test).
(§3) In this experiment, GnRH2 (A) or GnRH3 (B) combined with/without the AC inhibitor MDL12330A (20 μM) or PKA inhibitor H89 (20 μM) was used to incubate the grass carp pituitary cells for 24 (h) After drug treatment, the total RNA was extracted from the cells for real-time PCR of the respective genes. Data presented are expressed as mean ± SEM, and the different letters represent a significant difference at p < 0.05 between groups (ANOVA followed by a Dunnett test).
Data presented are expressed as mean ± SEM, and the different letters represent a significant difference at p < 0.05 between groups (ANOVA followed by a Dunnett test).

Assay [2] concerns grass carp pituitary cells. Briefly: Signal transduction: pathway inhibitors on GnRH-induced anorectic gene mRNA. The settings on record: U73122 10 μM, GF109203X 20 μM, 2-APB 100 μM, MDL12330A 20 μM, H89 20 μM, nifedipine 10 μM, calmidazolium 1 μM, KN62 5 μM; for blockade of GnRH2-induced POMCb, CART2, UTS1, NMBa, NMBb, and LEPR mRNA expression: cotreated with GnRH2, 24 h; for blockade of GnRH3-induced POMCb, CART2, UTS1, NMBa, NMBb, and LEPR mRNA expression: cotreated with GnRH3, 24 h. The assay is classed as cell-based, grass carp (Ctenopharyngodon idellus). How it is done:
as §1
To explore the signal transduction for GnRH-induced target gene mRNA expression, the method mentioned above was performed.
as §2, with “Figure 10 Signal transduction for GnRH2- and GnRH3-induced POMCb, CART2, UTS1, NMBa, NMBb, and LEPR mRNA expression in grass carp pituitary cells. In” for “In”
as §3, with “Figure 11 Signal transduction for GnRH2- and GnRH3-induced POMCb, CART2, UTS1, NMBa, NMBb, and LEPR mRNA expression in grass carp pituitary cells. In” for “In”
Figure 12 Signal transduction for GnRH2- and GnRH3-induced POMCb, CART2, UTS1, NMBa, NMBb, and LEPR mRNA expression in grass carp pituitary cells. […] Data presented are expressed as mean ± SEM, and the differences between groups were significant at p < 0.05 by labelling diverse letters (ANOVA followed by a Dunnett test).

A further assay deals with DRD2. The settings on record: teleost; ref [37]; cited from earlier work.
A further assay concerns grass carp pituitary. The settings on record: ref [15]; cited from earlier work. An excerpt: As we know, energy metabolism was associated with reproductive behavior in vertebrates ([11]), and adequate energy reserve was essential for breeding ([12]).

Turning to `CN([C@@H](Cc1ccc(OS(=O)(=O)c2cccc3cnccc23)cc1)C(=O)N1CCN(c2ccccc2)CC1)S(=O)(=O)c1cccc2cnccc12` [KN62], in assay [1], the “blockade of GnRH2-induced GtHα, LHβ, FSHβ, INHBa, and SgII mRNA expression” value (shortened to “blockade of GnRH2-induced GtHα, LHβ”) is listed as “could also block”; the “blockade of GnRH3-induced GtHα, LHβ, FSHβ, INHBa, and SgII mRNA expression” value (shortened to “blockade of GnRH3-induced GtHα, LHβ”) is reported as “could also block”. Besides, in assay [2], the “blockade of GnRH2-induced POMCb, CART2, UTS1, NMBa, NMBb, and LEPR mRNA expression” value (shortened to “blockade of GnRH2-induced POMCb, CART2”) is recorded as “could block”; the “blockade of GnRH3-induced POMCb, CART2, UTS1, NMBa, NMBb, and LEPR mRNA expression” value (shortened to “blockade of GnRH3-induced POMCb, CART2”) is recorded as “could block”.
Turning to `Clc1ccc(C(c2ccc(Cl)cc2)n2cc[n+](CC(OCc3ccc(Cl)cc3Cl)c3ccc(Cl)cc3Cl)c2)cc1` (centres unmarked) [calmidazolium], in assay [1], the “blockade of GnRH2-induced GtHα, LHβ” value is “could also block”; the “blockade of GnRH3-induced GtHα, LHβ” value is “could also block”. For the same compound, in assay [2], the “blockade of GnRH2-induced POMCb, CART2” value was “could block”; the “blockade of GnRH3-induced POMCb, CART2” value is on record as “could block”.
In the case of `O=S(=O)(NCCNC/C=C/c1ccc(Br)cc1)c1cccc2cnccc12` [H89], in assay [1], the “blockade of GnRH2-induced GtHα, LHβ” value is reported as “could also be blocked”; the “blockade of GnRH3-induced GtHα, LHβ” value is “could also be blocked”. In addition, in assay [2], the “blockade of GnRH2-induced POMCb, CART2” value was “could block”; the “blockade of GnRH3-induced POMCb, CART2” value was “could block”.
Take `COc1ccc2c(c1)CC[C@@H]1[C@@H]2CC[C@]2(C)[C@@H](NCCCCCCN3C(=O)C=CC3=O)CC[C@@H]12` [U73122]: in assay [1], the “blockade of GnRH2-induced GtHα, LHβ” value is recorded as “could block”; the “blockade of GnRH3-induced GtHα, LHβ” value was “could block”. For the same compound, in assay [2], the “blockade of GnRH2-induced POMCb, CART2” value was “could block”; the “blockade of GnRH3-induced POMCb, CART2” value is recorded as “could block”.
On to `NCCc1ccc(O)c(O)c1` [dopamine], for which the “effect on LH synthesis via activation of DRD2” value with DRD2 is “inhibited”.
Turning to `NCCOB(c1ccccc1)c1ccccc1` [2-APB], in assay [1], the “blockade of GnRH2-induced GtHα, LHβ” value is “could block”; the “blockade of GnRH3-induced GtHα, LHβ” value is “could block”. Moreover, in assay [2], the “blockade of GnRH2-induced POMCb, CART2” value was “could block”; the “blockade of GnRH3-induced POMCb, CART2” value is “could block”.
Consider `Cl.c1ccc(C2CCCC2NC2=NCCCCCCCCCCC2)cc1` (centres unmarked) [MDL12330A], for which, in assay [1], the “blockade of GnRH2-induced GtHα, LHβ” value is given as “could also be blocked”; the “blockade of GnRH3-induced GtHα, LHβ” value was “could also be blocked”. In assay [2], the “blockade of GnRH2-induced POMCb, CART2” value was “could block”; the “blockade of GnRH3-induced POMCb, CART2” value was “could block”.
Regarding `CN(C)CCCn1cc(C2=C(c3c[nH]c4ccccc34)C(=O)NC2=O)c2ccccc21` [GF109203X], in assay [1], the “blockade of GnRH2-induced GtHα, LHβ” value is “could block”; the “blockade of GnRH3-induced GtHα, LHβ” value is “could block”. For the same compound, in assay [2], the “blockade of GnRH2-induced POMCb, CART2” value is “could block”; the “blockade of GnRH3-induced POMCb, CART2” value is on record as “could block”.
For `COC(=O)C1=C(C)NC(C)=C(C(=O)OC)C1c1ccccc1[N+](=O)[O-]` [nifedipine], in assay [2], the “blockade of GnRH2-induced POMCb, CART2” value is “could block”; the “blockade of GnRH3-induced POMCb, CART2” value is on record as “could block”.
As for prolactin-releasing peptide [PRRP], in the assay with grass carp pituitary, the “effect on LH secretion and synthesis” value is listed as “significantly induce”.
